Earlier results in patent publication US5541094A, “Glyoxylic acid/aminomethylphosphonic acid mixtures prepared using a microbial transformant” (E. I. du Pont de Nemours and Company, priority 1994, dated 1996).

System: glycolate oxidase
Conditions: 100 mM; enzyme extracted from tobacco leaves

Q: Which “inhibition of the catalytic action of the glycolate oxidase” value does the source give for `O=C(O)C(=O)O` [Oxalic acid] here?
A: The value was “inhibit the catalytic action of the glycolate oxidase”.
